“And” between values parts separate entries of the source, which are not always exact repeats. Equal entries are not always repeated.
Columns and labels:
[1] = Crystal
[2] = Molar enthalpy of transition or fusion; details: Crystal; DSC

c1ccc2cc3ccccc3cc2c1 [anthracene]
[1]
Details | vapor or sublimation pressure
343.29 K | 0.000192 kPa
343.3 K | 0.000182 kPa
343.31 K | 0.000197 kPa
345.76 K | 0.000235 kPa and 0.00024 kPa
345.79 K | 0.000247 kPa
348.21 K | 0.000317 kPa and 0.000305 kPa
348.27 K | 0.000297 kPa
350.75 K | 0.000392 kPa
350.76 K | 0.000401 kPa
350.79 K | 0.000384 kPa
353.04 K | 0.000479 kPa and 0.000485 kPa
353.19 K | 0.000498 kPa
355.68 K | 0.00063 kPa
355.73 K | 0.000626 kPa
355.74 K | 0.000623 kPa
358.14 K | 0.000799 kPa
358.15 K | 0.000784 kPa
358.18 K | 0.000798 kPa
360.63 K | 0.001 kPa
360.66 K | 0.000992 kPa
360.68 K | 0.000998 kPa
362.95 K | 0.00123 kPa and 0.001232 kPa
363.13 K | 0.001244 kPa
365.54 K | 0.00155 kPa
365.55 K | 0.001551 kPa
365.56 K | 0.001562 kPa
367.97 K | 0.001927 kPa and 0.001947 kPa
367.98 K | 0.001941 kPa
370.43 K | 0.002398 kPa
370.44 K | 0.002418 kPa and 0.002409 kPa
372.85 K | 0.00298 kPa
372.89 K | 0.002973 kPa and 0.002978 kPa

c1ccc2cc3sccc3cc2c1 [naphtho[2,3-b]thiophene]
Details | Normal melting temperature [°C]
[1], DTA | 188.6

Details | Molar enthalpy of transition or fusion [kcal/mol]
[2] | 5.09
